Assay results as given in patent publication US20210052589A1, “COMPOUNDS FOR TREATING ALZHEIMER'S DISEASE” (Amabiotics, priority 2018, published 2021).

Tests used:
Tau = test: Hyperphosphorylation of Tau in neuron cytoplasm (AT100, overlapping Tau/MAP-2) after Aβ1-42 intoxication; type: cell-based, rat
Experimental: (§1) Rat cortical neurons are cultured as described by Callizot et al., (2013) with modifications. Briefly pregnant female rat (Wistar) of 15 days of gestation are killed. Foetuses are collected and immediately placed in ice-cold L15 Leibovitz medium with a 2% penicillin (10,000 U/mL) and streptomycin (10 mg/ml) solution (PS) and 1% bovine serum albumin (BSA). Cortex are treated for 20 min at 37° C. with a trypsin- EDTA solution at a final concentration of 0.05% trypsin and 0.02% EDTA. The dissociation is stopped by addition of Dulbecco's modified Eagle's medium (DMEM) with 4.5 g/L of glucose, containing DNAse I grade II (final concentration 0.5 mg/ml) and 10% fetal calf serum (FCS). Cells are mechanically dissociated by three forced passages through the tip of a 10-ml pipette. Cells are then centrifuged at 515×g for 10 min at 4° C. The supernatant is discarded, and the pellet is resuspended in a defined culture medium consisting of Neurobasal medium with a 2% solution of B27 supplement, 2 mmol/litter of L-glutamine, 2% of PS solution, 10 ng/mL of brain-derived neurotrophic factor (BDNF), 2% of heat-inactivated horse serum, 2% of heat-inactivated FCS, 1 g/L of glucose, 1 mM of sodium pyruvate, and 100 μM of non-essential amino acids. Viable cells are counted in a Neubauer cytometer, using the trypan blue exclusion test. The cells are seeded at a density of 45,000 per well in 96-well plates (for immunostaining) precoated with poly-L-lysine and are cultured at 37° C. in an air (95%)-CO2 (5%) incubator. For 96 wells plates, only 60 wells are used. The wells of first and last lines and columns are not used (to avoid the edge effect) and are filled with sterile water. The medium is changed every 2 days.
(§2) On day 10 of culture, queuine is dissolved in the culture medium and pre-incubated with primary cortical neurons for 24H, before Aβ1-42 exposure. Then on day 11 of culture, the cortical neurons are intoxicated with AB solutions. The Aβ1-42 preparation is done following the procedure described by Callizot et al., (2013). Briefly, Aβ1-42 peptide are dissolved in the defined culture medium mentioned above, at an initial concentration of 40 μmol/L. This solution is gently agitated for 3 days at 37° C. in the dark and immediately used after being properly diluted in culture medium to the concentration used (5 μM, 0.5μM oligomers).
(§3) Aβ1-42 preparation is added to a final concentration of 5μM (0.5 μM oligomers, ABO) diluted in control medium in presence of queuine, for 72 hours.
Each compound is tested on 1 culture in a 96 well plate (6 wells per conditions). For 96 wells plates, only 60 wells are used. The wells of first and last lines and columns are not used (to avoid the edge effect) and are filled with sterile water. Queuine is added 24h before Aβ1-42 application. The following conditions are assessed:
(§4) 72 hours after Aβ1-42 application, the cell culture supernatant are collected cytokine quantification (e.g. TNFα) and the cortical neurons are fixed by a cold solution of ethanol (95%) and acetic acid (5%) for 5 min at −20° C. […]

TNF-α = test: TNFa release in a culture of cortical neurons and microglia after Aβ1-42 injury (ELISA); type: cell-based, rat; settings: for TNFa (% of vehicle group): control 100.00, Aβ1-42 alone 126.75; for level of TNFα (in words): Aβ1-42 (5 μM)
Experimental: as §1, §2, §3
72 hours after Aβ1-42 application, the cell culture supernatant are collected cytokine quantification (e.g. TNFα) and the cortical neurons are fixed by a cold solution of ethanol (95%) and acetic acid (5%) for 5 min at −20° C. After permeabilization with 0.1% of saponin, cells are incubated for 2 hours with: • a) chicken polyclonal antibody antimicrotubule-associated-protein 2 (MAP-2) at dilution of 1/1000 in PBS containing 1% fetal calf serum and 0.1% of saponin (this antibody stains specifically cell bodies and neurites, allowing study of neuronal cell death and neurite network). • b) mouse monoclonal anti-tau phosphor (Thr212, Ser214) at the dilution of 1/100 in PBS containing 1% foetal calf serum and 0.1% of saponin. • c) rabbit polyclonal antibody anti-SIRP alpha/CD172a at dilution of 1/400 in PBS containing 1% fetal calf serum and 0.1% of saponin (this antibody stains specifically the microglia and is allow to evaluate the activation of the microglial cells).
In order to assess the activation of microglia in the cell culture, the levels of TNF-α are quantified in cell culture supernatant after 72h (end of the culture) by ELISA.

Rat cortical neurons [1] = test: Total neurite network (length of MAP-2 positive neurite) after Aβ1-42 intoxication; type: cell-based
Experimental: as §1
as §2, with “oligomers). […]” for “oligomers).”
(§5) Each compound is tested on 1 culture in a 96 well plate (6 wells per conditions). […] The following conditions are assessed:
as §4

Rat cortical neurons [2] = test: Neuron survival (number of MAP-2 positive neurons) after Aβ1-42 intoxication; type: cell-based; settings: for survival of neurons: p<0.05
Experimental: as §1
as §2, with “oligomers). […]” for “oligomers).”
as §5, §4

[3] = queuine 300 nM added 24h before Aβ1-42 (5 μM, 72 H), p<0.05
[4] = queuine 1 μM added 24h before Aβ1-42 (5 μM, 72 H), p<0.05
[5] = queuine 3 μM added 24h before Aβ1-42 (5 μM, 72 H), p<0.05
[6] = BDNF 50 ng/ml, Aβ1-42 (5 μM, 72 H)

Molecule: 7-(3,4-trans-4,5-cis-dihydroxy-1-cyclopenten-3-ylaminomethyl)-7-deazaguanine [queuine]
- Tau hyperphosphorylation (Tau; queuine 100 nM added 24h before Aβ1-42 (5 μM, 72 H), p<0.05): restores the level of hyperphosphorylation of Tau
- Tau hyperphosphorylation (Tau; [3]): restores the level of hyperphosphorylation of Tau
- Tau hyperphosphorylation (Tau; [4]): restores the level of hyperphosphorylation of Tau
- Tau hyperphosphorylation (Tau; [5]): restores the level of hyperphosphorylation of Tau
- TNFa (% of vehicle group) (TNF-α; Aβ1-42 (5 μM, 72 H) + queuine (300 nM)): 105.54 % of vehicle group
- TNFa (% of vehicle group) (TNF-α; Aβ1-42 (5 μM, 72 H) + queuine (1 μM)): 87.33 % of vehicle group
- TNFa (% of vehicle group) (TNF-α; Aβ1-42 (5 μM, 72 H) + queuine (3 μM)): 93.32 % of vehicle group
- level of TNFα (in words) (TNF-α; queuine 300 nM, p<0.05): restores the level of TNFα
- level of TNFα (in words) (TNF-α; queuine 1 μM, p<0.05): restores the level of TNFα
- level of TNFα (in words) (TNF-α; queuine 3 μM, p<0.05): restores the level of TNFα
- neurite network (Rat cortical neurons [1]; [3]): significantly restores the neurite network
- neurite network (Rat cortical neurons [1]; [4]): significantly restores the neurite network
- neurite network (Rat cortical neurons [1]; [5]): significantly restores the neurite network
- survival of neurons (Rat cortical neurons [2]; queuine 100 nM added 24h before Aβ1-42 (5 μM, 72 H)): significantly restores the survival of neurons
- survival of neurons (Rat cortical neurons [2]; queuine 300 nM added 24h before Aβ1-42 (5 μM, 72 H)): significantly restores the survival of neurons
- survival of neurons (Rat cortical neurons [2]; queuine 1 μM added 24h before Aβ1-42 (5 μM, 72 H)): significantly restores the survival of neurons

B1: BDNF: brain-derived neurotrophic factor, used at 50 ng/ml as positive control and reference compound (protein, UniProt P23560 19-247, looked up)
Neurotrophic factor BDNF …: APMKEANIRGQGGLAYPGVRTHGTLESVNGPKAGSRGLTSLADTFEHVIEELLDEDQKVRPNEENNKDADLYTSRVMLSSQVPLEPPLLFLLEEYKNYLDAANMSMRVRRHSDPARRGELSVCDSISEWVTAADKKTAVDMSGGTVTVLEKVPVSKGQLKQYFYETKCNPMGYTKEGCRGIDKRHWNSQCRTTQSYVRALTMDSKKRIGWRFIRIDTSCVCTLTIKRGR
- Tau hyperphosphorylation (Tau; [6]): decreases Tau hyperphosphorylation
- TNFa (% of vehicle group) (TNF-α; Aβ1-42 (5 μM, 72 H) + BDNF (50 ng/ml)): 102.14 % of vehicle group
- level of TNFα (in words) (TNF-α; BDNF 50 ng/ml): decreases the level of TNFα
- neurite network (Rat cortical neurons [1]; [6]): restores the neurite network
- level neuronal staining for MAP-2 (number of cortical neurons) (Rat cortical neurons [2]; [6]): restores the level neuronal staining for MAP-2
